# Data: ChEMBL document CHEMBL3046848, “Synthesis and biological evaluation of novel series of thieno[2,3-d]pyrimidine derivatives as anticancer and antimicrobial agents” (2013)
# How the values were obtained:
# Type in all cases: functional
# [1] = system: Staphylococcus aureus; test: Antimicrobial activity against Staphylococcus aureus ATCC6538P assessed as diameter of growth inhibition zone at 1 mg/ml after 24 hr by agar cup diffusion method; settings: read-out: IZ
# [2] = system: Candida albicans; test: Antimicrobial activity against Candida albicans ATCC2091 assessed as diameter of growth inhibition zone at 1 mg/ml after 48 hr by agar cup diffusion method; settings: ATCC2091, 48 h, read-out: IZ
# [3] = system: Escherichia coli; test: Antimicrobial activity against Escherichia coli ATCC8739 assessed as diameter of growth inhibition zone at 1 mg/ml after 24 hr by agar cup diffusion method; settings: ATCC8739, 24 h, read-out: IZ
# [4] = system: Pseudomonas aeruginosa; test: Antimicrobial activity against Pseudomonas aeruginosa ATCC9027 assessed as diameter of growth inhibition zone at 1 mg/ml after 24 hr by agar cup diffusion method; settings: ATCC9027, 24 h, read-out: IZ
# [5] = system: IGROV-1; test: Growth inhibition of Homo sapiens (human) IGROV1 cells at 10 uM after 48 hr by SRB assay; settings: IGROV-1, 48 h, read-out: GI
# [6] = system: TK-10; test: Growth inhibition of Homo sapiens (human) TK10 cells at 10 uM after 48 hr by SRB assay; settings: TK-10, 48 h, read-out: GI
# [7] = system: SK-MEL-2; test: Growth inhibition of Homo sapiens (human) SK-MEL-2 cells at 10 uM after 48 hr by SRB assay; settings: SK-MEL-2, 48 h, read-out: GI
# [8] = system: Staphylococcus aureus; test: Antimicrobial activity against Staphylococcus aureus ATCC6538P assessed as growth inhibition after 48 hr by two-fold serial dilution method
# [9] = system: Pseudomonas aeruginosa; test: Antimicrobial activity against Pseudomonas aeruginosa ATCC9027 assessed as growth inhibition after 48 hr by two-fold serial dilution method; settings: ATCC9027, 48 h
# [10] = system: SF-295; test: Growth inhibition of Homo sapiens (human) SF295 cells at 10 uM after 48 hr by SRB assay; settings: SF-295, 48 h, read-out: GI
# [11] = system: Escherichia coli; test: Antimicrobial activity against Escherichia coli ATCC8739 assessed as growth inhibition after 48 hr by two-fold serial dilution method; settings: ATCC8739, 48 h
# [12] = system: Candida albicans; test: Antimicrobial activity against Candida albicans ATCC2091 assessed as growth inhibition after 48 hr by two-fold serial dilution method; settings: ATCC2091, 48 h
SMILES,zone of inhibition at 1000 µg/mL [1],zone of inhibition at 1000 µg/mL [2],zone of inhibition at 1000 µg/mL [3],zone of inhibition at 1000 µg/mL [4],inhibition of growth at 10 µM [5],inhibition of growth at 10 µM [6],inhibition of growth at 10 µM [7],MIC [8],MIC [9],inhibition of growth at 10 µM [10],MIC [11],MIC [12]
Cc1c(C(N)=O)sc2nc(S)n(-c3ccccc3)c(=O)c12,12 mm,15 mm,15 mm,12 mm,–,–,–,–,–,–,–,–
Cc1c(C(N)=O)sc2nc(SCC(=O)Nc3ccccc3)n(-c3ccccc3)c(=O)c12,10 mm,15 mm,15 mm,12 mm,–,–,–,–,–,–,–,–
Cc1c(C(N)=O)sc2nc(SCC(=O)Nc3ccc(Cl)cc3)n(-c3ccccc3)c(=O)c12,10 mm,15 mm,15 mm,12 mm,79.4%,47.2%,116%,–,–,–,–,–
Cc1ccc(NC(=O)CSc2nc3sc(C(N)=O)c(C)c3c(=O)n2-c2ccccc2)cc1,10 mm,15 mm,15 mm,12 mm,–,–,–,–,–,–,–,–
CC(=O)CSc1nc2sc(C(N)=O)c(C)c2c(=O)n1-c1ccccc1,13 mm,15 mm,15 mm,12 mm,–,–,–,250 µg/mL,–,–,–,–
CCOC(=O)CSc1nc2sc(C(N)=O)c(C)c2c(=O)n1-c1ccccc1,10 mm,15 mm,13 mm,12 mm,–,–,–,–,–,–,–,–
CSc1nc2sc(C(N)=O)c(C)c2c(=O)n1-c1ccccc1,10 mm,15 mm,13 mm,12 mm,–,–,–,–,–,–,–,–
CCSc1nc2sc(C(N)=O)c(C)c2c(=O)n1-c1ccccc1,10 mm,15 mm,16 mm,12 mm,–,–,–,–,–,–,–,–
Cc1c(C(N)=O)sc2nc[nH]c(=O)c12,10 mm,15 mm,13 mm,12 mm,–,–,–,–,–,–,–,–
Cc1c(C(N)=O)sc2ncn(Cc3ccccc3)c(=O)c12,10 mm,15 mm,15 mm,16 mm,–,–,–,–,–,–,–,–
Cc1c(C(N)=O)sc2ncn(CCO)c(=O)c12,10 mm,15 mm,15 mm,17 mm,–,97.1%,–,–,125 µg/mL,43.8%,–,–
Cc1c(C(N)=O)sc2ncn(C3CCCCC3)c(=O)c12,10 mm,15 mm,17 mm,12 mm,–,–,–,–,–,–,125 µg/mL,–
CCOC(=O)c1c(NC(C)=O)sc(C(N)=O)c1C,10 mm,15 mm,16 mm,12 mm,–,–,–,–,–,–,125 µg/mL,–
Cc1c(C(N)=O)sc2nc(C)n(N)c(=O)c12,10 mm,15 mm,15 mm,17 mm,–,–,–,–,125 µg/mL,–,–,–
Cc1c(C(N)=O)sc2nc(C)n(NC(=S)Nc3ccccc3)c(=O)c12,10 mm,15 mm,15 mm,12 mm,–,–,–,–,–,–,–,–
CC1(C)S[C@@H]2[C@H](NC(=O)[C@H](N)c3ccccc3)C(=O)N2[C@H]1C(=O)O [AMPICILLIN],30 mm,–,26 mm,18 mm,–,–,–,3.91 µg/mL,125 µg/mL,–,7.81 µg/mL,–
Clc1ccccc1C(c1ccccc1)(c1ccccc1)n1ccnc1 [CLOTRIMAZOLE],–,28 mm,–,–,–,–,–,–,–,–,–,7.81 µg/mL
